Reference: patent publication US20230190616A1, “COMPOUNDS USEFUL FOR THE TREATMENT AND/OR CARE OF THE SKIN, HAIR, NAILS AND/OR MUCOUS MEMBRANES” (LUBRIZOL ADVANCED MATERIALS, INC., priority 2018, published 2023)

Legend:
Format in all cases: cell-based
[1] = tested on: Musclebind like protein 1 (MBNL1) in human skeletal muscle cells (hSkMc); test: Quantification of Musclebind like protein 1 in human skeletal muscle cells by TR-FRET; details: 1 mg/ml; 48 hours
[2] = tested on: human neuroblastoma cell line (SH-SY5Y); test: Inhibition of noradrenaline (NA) release from human neuroblastoma cells, ELISA
Text: Inhibition of noradrenaline release from human neuroblastoma cells.
Release of neurotransmitters by exocytosis in neuromuscular junctions from peripheral neurons to skeletal muscle allows muscle contraction. Face muscles are subject to said contraction and facial muscle contraction is more frequent around eyes, mouth and forehead than elsewhere in the face. With age, continuous release of neurotransmitters into neuromuscular junctions and decrease of elasticity contribute to the increase of facial wrinkles and permanent expression lines. Compounds able to block or decrease exocytosis on neuromuscular junction sites are thus good candidates for the cosmetic treatment of unaesthetic wrinkles. In vitro induction of the neurotransmitter Noradrenaline (NA) release in a human neuroblastoma cell line (SH-SY5Y) is considered a direct and reliable method for exocytosis measurement. The aim of this study is to evaluate the efficacy of the peptides of the invention on the inhibition of neuronal exocytosis by means of measuring the levels of NA release in SH-SY5Y cells by Enzyme-linked Immunosorbent Assay (ELISA).
SH-SY5Y (ECACC) cells are seeded in 12-well plates at a density of 1×10^6 cells/well. After a 6-day culture, medium is removed from wells and cells are treated for 60 minutes with the peptides of the invention dissolved in Hank’s Balanced Salt Solution (HBSS, Life Technologies) at 1 and 2.5 mg/ml. Cells treated with HBSS alone are used as a basal control. To mobilize NA vesicles, supernatants are removed and 100 nM Tetradecanoylphorbol-13-acetate (TPA, Sigma) is dissolved in the presence of test items in HBSS or dissolved in HBSS alone in the case of the basal control. After this, solutions with TPA are removed and NA release is induced by the addition of 10 µM lonomycin (Epica) with 100 nM TPA dissolved in the presence of test items in HBSS or dissolved in HBSS alone in the case of the basal control. Afterwards, the medium in the wells, containing released NA, is collected and centrifuged. Supernatants obtained are used for quantification of NA by ELISA with noradrenalin ELISA kit (IBL International) following manufacturer’s instructions. In brief, direct sandwich ELISA is performed with a plate pre-coated with an anti-NA antibody. The color obtained after substrate addition is directly proportional to the amount of NA present in each condition tested. Absorbance is read in a microplate absorbance reader (Clariostar™, BMG) at 405 nm. The percentage of NA release for each condition is calculated respect to basal control.

[3] = tested on: collagen type I in primary human dermal fibroblasts (HDFn); test: Type I collagen synthesis on human dermal fibroblasts by ELISA; details: 0.5 µg/ml; for % Collagen induction: 48 hours
Text: In vitro study of type I collagen synthesis on human dermal fibroblasts by Enzyme-Linked Immunosorbent Assay.
Collagen type I is the principal collagen of skin. This molecule, which is mainly produced by fibroblasts, is responsible for the strength and resiliency of this tissue. For this reason, in vitro quantification of collagen induction by cosmetic products on human dermal fibroblasts provides information about their potential anti-aging effects on the skin. Collagen induction by the peptides of the invention is evaluated with an Enzyme-Linked Immunosorbent Assay (ELISA). The aim of this study is to investigate the ability of a product to induce collagen type I synthesis in primary human dermal fibroblasts isolated from neonatal skin (HDFn).
HDFn (Cascade) are seeded at a density of 5×10^4 in 48-well plates. After 24-hour incubation, fresh medium with scalar dilutions of the test items at 0.5 µg/ml are added. Non-treated cells are used as basal control. The cells are treated for 48 hours. Then, the medium of the wells is collected and transferred into a 96-well plate. A standard calibration curve prepared with calf skin type I collagen (Sigma) is transferred into the plate as well. The plate is left overnight in order to coat type I collagen into its surface. After that, collagen I is detected with an anti-collagen type I antibody (Sigma). The primary antibody is then recognized by a secondary antibody IgG-HRP (molecular probes). 3,3,5,5-tetramethylbenzidine liquid substrate (TMB, Sigma) is added to measure the amount of secondary antibody attached. The color produced by this reaction is measured in a microtiter plate reader (Clariostar™, BMG) and type I collagen concentration is determined using a linear regression of the standard curve.

[4] = tested on: Musclebind like protein 1 (MBNL1) in human skeletal muscle cells (hSkMc); test: Quantification of Musclebind like protein 1 in human skeletal muscle cells by TR-FRET; details: for % MBNL1 vs basal level / MBNL1 levels compared to the basal control and to Argireline (in words): 0.5 mg/ml; for % MBNL1 vs basal level: 48 hours
Protocol: In vitro quantification of Musclebind like protein 1 in human skeletal muscle cells by Time resolved fluorescence resonance energy transfer.
MBNL1 induction by the peptides of the invention is evaluated by a Time resolved fluorescence resonance energy transfer (TR-FRET) assay. The aim of this study is to investigate the capacity of peptide candidates to increase MBNL-1 in human skeletal muscle cells (hSkMc).
hSkMc (Innoprot) are seeded in 12-well plates at a density of 1.5×10^4 cells/well in Skeletal Muscle Cell Growth Medium (Promocell). After 72 hours incubation, medium is removed and replaced with Skeletal Muscle Cell Differentiation Medium (Promocell). 48 hours after beginning cell differentiation, fresh differentiation medium with 0.5 mg/ml of test items is added. Treatment is continued for 48 hours and non-treated cells are used as basal control. After 48 hours of treatment, cell medium is removed and cell lysis buffer is added to wells. Immediately, plates are kept at -80° C. in order to improve protein extraction during the defrosting process. After 72 hours, cells are lysed by shaking the plates in an orbital rotor at room temperature for 45 minutes. Next, cell lysates are collected and assayed to quantify the level of MBNL-1 protein and total protein concentration.
MBNL-1 protein levels measurement is performed with Human MBNL1 Assay Kit (Cisbio) according to the manufacturer’s protocol. Briefly, the kit is used to perform a TR-FRET for MBNL1 quantification. The protein is detected with the antibodies provided in the kit and quantified by a fluorescence measurement. The quantification is carried out by using a microplate reader (ClarioStar™™™, BMG) set to 665 nm and 620 nm.
Total protein concentration of cell lysate is determined by using Pierce BCA Protein Assay Kit (Thermo Scientific) according to manufacturer’s protocol. In brief, after adding Working Reagent to the samples and the standards, the samples are incubated. Afterwards, color change is measured with an absorbance microplate reader (Clariostar™, BMG) at 562 nm. The total protein amount is used to normalize the level of MBNL1 protein concentration obtained by the TR-FRET test in the samples.

[5] = 1 mg/ml, SH-SY5Y, respect to basal control, mean of 3 assays
[6] = 2.5 mg/ml, SH-SY5Y, respect to basal control, mean of 3 assays
[7] = HDFn, versus non-treated cells, mean of 5 assays
[8] = hSkMc, normalized to total protein

Substance | % MBNL1 vs basal level [4, 8] [%] | MBNL1 levels compared to the basal control and to Argireline (in words) ([4]; hSkMc) | also measured
ARGIRELINE [Ac—Glu—Glu—Met—Gln—Arg—Arg, reference compound] |  |  | % MBNL1 vs basal level [1]: 86.9%; % Released NA ([2]; 1 mg/ml): 79.6%; % Released NA ([2]; 2.5 mg/ml): 63.5%; % Collagen induction [3]: 109.8%; Effect on MBNL1 (in words) [4]: no effect; % MBNL1 vs basal level [4]: 96.6%
Ac-L-Arg-L-Arg-L-Gln-L-Met-L-Glu-L-Glu-NH2 [PEP-21] | 91.9 |  | % Released NA [2, 5]: 78.9%; % Released NA [2, 6]: 43.8%; % Collagen induction [3, 7]: 119.3%; Efficacy in increasing collagen type I compared with Argireline (in words) ([3]; HDFn): even higher
Ac-L-Lys-L-Arg-L-Gln-D-Met-L-Glu-L-Glu-NH2 [PEP-36] | 117.6 | increase MBNL1 levels | 
Ac-L-Arg-L-Arg-L-Gln-D-Leu-L-Glu-L-Glu-NH2 [PEP-37] | 140.3 | increase MBNL1 levels | 
Ac-L-Ala-L-Arg-L-Arg-L-Gln-D-Met-L-Glu-L-Glu-L-Ala-NH2 [PEP-42] | 144.4 | increase MBNL1 levels | 
Ac-L-Arg-L-Arg-L-Asp-D-Met-L-Glu-L-Glu-NH2 [PEP-41] | 151.3 | increase MBNL1 levels | 
Ac-L-Arg-L-Arg-L-Gln-D-Met-L-Glu-L-Gln-NH2 [PEP-31] | 161.3 | increase MBNL1 levels | 
Ac-L-Arg-L-Arg-L-Gln-D-Met-L-Glu-L-Glu-OH [PEP-26] | 109.6 | increase MBNL1 levels | 
Ac-L-Arg-L-Arg-L-Gln-D-Met-L-Glu-NH2 [PEP-44] | 137.8 | increase MBNL1 levels | 
Ac-L-Arg-L-Gln-D-Met-L-Glu-L-Glu-NH2 [PEP-43] | 112.4 | increase MBNL1 levels | 
Ac-L-Arg-L-Lys-L-Gln-D-Met-L-Glu-L-Glu-NH2 [PEP-35] | 144.3 | increase MBNL1 levels | 
Ac-L-Arg-L-Arg-L-Gln-D-Met-L-Asp-L-Glu-NH2 [PEP-30] | 160.0 | increase MBNL1 levels | 
Ac-L-Arg-L-Arg-D-Gln-D-Met-L-Glu-L-Glu-NH2 [PEP-24] | 120.9 | increase MBNL1 levels | % Released NA [2, 5]: 65.8%; % Released NA [2, 6]: 52.3%; % Collagen induction [3, 7]: 104.7%
H-L-Arg-L-Arg-L-Gln-D-Met-L-Glu-L-Glu-NH2 [PEP-27] | 144.2 | increase MBNL1 levels | 
